The test system of one experiment is ICR mice. Description: Elevated plus maze experiment in mice, single administration. To be noted: for OE % / OT %: 30 min after single administration; for anxiolytic activity in elevated plus maze vs solvent control group: comparative study, single intragastric administration of 20 mg/kg. The format is in vivo. The method, then:
50 male ICR mice were randomly divided into 5 groups (a solvent control group, estazolam group, M2 high dosage group, M2 medium dosage group, M2 low dosage group), with 10 mice in each group. The compound M2 high, medium and low dosage groups were intragastrically administered at 20 mg/kg. 10 mg/kg and 5 mg/kg, respectively; the positive drug estazolam was intragastrically administered at 2.5 mg/kg; and the solvent control group was gavaged with an equal volume of solvent. Behavior test was performed in each group 30 min after single administration. The experiments were required to be conducted between 8:00 am and […], and all animals entered the test laboratory on the previous day.
The laboratory was dimly lit (with the lowest brightness that can distinguish the subtle activities of mice at a distance of 1.5 m) and the brightness was kept constant, with a room temperature of about 20° C., and kept quiet. Before the maze test, each mouse was placed in a 35 cm*10 cm*5 cm plastic box and left to explore freely for 5 min and then quickly placed at the central platform of an elevated plus maze, with its head facing one of the open arms, and the following indexes were recorded upon release. Each mouse was tested for 5 min. Observers observed and recorded animal activities at a distance of 1.5 m. At intervals, the maze was wiped with a wet cloth to remove feces, and then wiped with a dry cloth before a next mouse was tested.
• (1) The number of open arm entries (OE): the number of entries into any open arm, based on the fact that all four claws of the mouse entered the arm, and a complete exit of one claw from the arm indicated the completion of the entry activity; • (2) open arm time (OT): the time of entering an open arm, with the unit of seconds; • (3) the number of close arm entries (CE): the number of entries into any close arm, based on the fact that all four claws of the mouse entered the arm; • (4) close arm time (CT): the time of entering a close arm, with the unit of seconds; • (5) percentage of open arm time: OT %=OT/(OT+CT)*100%; and • (6) percentage of open arm entries: OE %=OE/(OE+CE)*100%.
70 male ICR mice were randomly divided into 7 groups (a solvent control group, estazolam group, compound M2 group, compound II-3 group, compound II-4 group, compound II-5 group, and compound II-10 group), with 10 mice in each group. The dosage of M2 and its four structurally similar compounds was determined as 20 mg/kg according to the experimental results of 3.1: the positive drug estazolam was administered intragastrically at 2.5 mg/kg; and the solvent control group was gavaged with an equal volume of solvent. Behavior test was performed in each group 30 min after single administration. The experiments were required to be conducted between 8:00 am and […], and all animals entered the test laboratory on the previous day.
The behavioral test method and behavioral observation indexes were the same as those in 3.1.
(§1) Data was expressed as mean±standard (mean±SD) difference, and statistics of data differences were made by one-way analysis of variance (ANOVA) or nonparametric test, and differences between groups were determined by P<0.05.

Another experiment deals with SD rats. Description: Vogel drinking conflict experiment in rats, single administration. Format: in vivo. The settings on record: for Number of times of drinking water: 10 mg/kg i.g., 30 min after single dose, punishment stage 3 min, n = 8; for anxiolytic activity in drinking conflict experiment vs solvent control group: single intragastric administration of 20 mg/kg. The method, then:
75 male SD rats, with the body weight of 180-220 g, were fed adaptively for 1 week, water deprived for 24 h for training period test. The animals screened to be qualified were randomly divided into 7 groups (a solvent control group, estazolam group, compound M2 group, compound II-3 group, compound II-4 group, compound II-5 group and compound II-10 group) according to their body weight, with 8 rats in each group. […] results of 3.1: the positive drug estazolam was administered intragastrically at 1.24 mg/kg; and the solvent control group was gavaged with an equal volume of solvent. The grouped animals were continued to be water deprived for 24 h and were given a single dose, and tested in a punishment experiment 30 min after the single dose.
The experiment was carried out in two stages. The first stage is a training stage, in which 24 h after water deprivation, animals were placed in an operation box separately, and were allowed to fully explore until they found the bottle mouth and started to lick water (with an intensity of electric shock being 0 mA), a counter automatically recorded the number of licks within 3 min, and the animals that licked water less than 300 times were eliminated.
Observation index: the number of water licks of rats in the punishment stage.
as §1

The mark [1] stands for this setting: comparative study (Table 13), 20 mg/kg i.g.
The mark [2] stands for this setting: dosage exploration study (Table 12), 5 mg/kg i.g.
Setting [3] is: dosage exploration study (Table 12), 10 mg/kg i.g.
Setting [4] is: dosage exploration study (Table 12), 20 mg/kg i.g.

`NC(=O)/C=C/c1cc2c(c(C(F)(F)F)c1)OCO2` [Compound M2]: the OE % in the experiment with ICR mice (setting [1]) turned out to be 57.94 ± 11.72 %; with ICR mice (setting [2]) it was 35.46 ± 10.13%; in the experiment with ICR mice (setting [3]) it was 36.13 ± 14.12%; in the experiment on ICR mice (setting [4]) it was 38.47 ± 7.13 %. The OT % in the experiment on ICR mice (setting [1]) was 57.36 ± 8.77 %; with ICR mice (setting [2]), 38.52 ± 12.19%; in the experiment on ICR mice (setting [3]) it was 35.92 ± 13.11%; with ICR mice (setting [4]), 44.60 ± 9.33 %. For the same compound, the “anxiolytic activity in elevated plus maze vs solvent control group” value in the experiment with ICR mice was “significant anxiolytic activity”. In addition, the “effective dosage for single administration (anxiolytic)” value in the experiment with ICR mice (mice, elevated plus maze) worked out at 20 mg/kg. Also, in the experiment on SD rats, the “Number of times of drinking water” value was determined as 527.26 ± 143.66. For the same compound, the “anxiolytic activity in drinking conflict experiment vs solvent control group” value with SD rats is given as “significant anxiolytic activity”.
For `CC(C)CNC(=O)/C=C/c1cc2c(c(C(F)(F)F)c1)OCO2` [Compound I-5], in the experiment with ICR mice (setting [1]), the OE % was determined as 47.01 ± 6.30 % and the OT % is listed as 46.70 ± 9.98 %. Further, in the experiment with ICR mice, the “anxiolytic activity in elevated plus maze vs solvent control group” value is listed as “significant anxiolytic activity”. Besides, in the experiment on SD rats, the “Number of times of drinking water” value was found to be 478.02 ± 106.32 and the “anxiolytic activity in drinking conflict experiment vs solvent control group” value is “significant anxiolytic activity”.

The record behind these values is patent US20240217946A1, “ANTIDEPRESSANT AND ANXIOLYTIC SUBSTITUTED CINNAMAMIDE COMPOUND” (TASLY PHARMACEUTICAL GROUP CO., LTD., priority 2021, published 2024).
